Counter-ions that a name gives are not always drawn. One block for each molecule: values may come before it.
Key:
[1] = tested on: hypertensive reaction by angiotensin I; test: Effect against hypertensive activity of angiotensin I in rats; format: in vivo; conditions: 300 μg/kg i.v., rat, corrected by angiotensin II response
Method: Male rats (Sprague-Awley) weighing 300 to 400 g which were fed under free access to drinking water and feed were used as experimental animals. The rats were anesthetized with intraperitoneal administration of pentobarbital sodium (50 mg/kg) on the day before the test day, and a polyethylene tube was inserted into each of the femoral artery for measurement of blood pressure and the femoral vein for injection of angiotensin I and II. And the tubes were fixed.
On the test day, an average blood pressure in the control phase was measured by an electric hemodynamometer (MPU-0.5-290-0-III model, manufactured by NEC-Sanei, Japan) and recorded by a polygraph (NEC-Sanei, Tupe 365, or Nippon Kohden Type RM-45), and thereafter, angiotensin I and then angiotensin II were injected through the femoral vein at a dose of 300 ng/kg and 100 ng/kg, respectively, to measure the hypertensive activity. Then, 300 μg/kg of the compound of the present invention was administered intravenously as an isotonic saline solution, and 5, 10, 30, 60, 90 and 120 minutes after the administration, angiotensin I and II were injected repeatedly to trace hypertensive reactions. In calculating the percent inhibition to the hypertensive activity of angiotensin I, the percent inhibitory value was corrected based on the variation with time in the hypertensive reaction by angiotensin II.

[2] = molecular target: T1, Angiotensin I Converting Enzyme (ACE) (Oryctolagus cuniculus, UniProt P12822); test: Inhibition of Angiotensin I Converting Enzyme (ACE), HHL substrate, modified Cushman method; format: biochemical; conditions: compound concentration 0.1 μM; substrate hippuryl-L-histidyl-L-leucine; 37° C., 1 hour; read-out: ACE inhibitory activity (%)
T1 sequence (P12822 34-1310): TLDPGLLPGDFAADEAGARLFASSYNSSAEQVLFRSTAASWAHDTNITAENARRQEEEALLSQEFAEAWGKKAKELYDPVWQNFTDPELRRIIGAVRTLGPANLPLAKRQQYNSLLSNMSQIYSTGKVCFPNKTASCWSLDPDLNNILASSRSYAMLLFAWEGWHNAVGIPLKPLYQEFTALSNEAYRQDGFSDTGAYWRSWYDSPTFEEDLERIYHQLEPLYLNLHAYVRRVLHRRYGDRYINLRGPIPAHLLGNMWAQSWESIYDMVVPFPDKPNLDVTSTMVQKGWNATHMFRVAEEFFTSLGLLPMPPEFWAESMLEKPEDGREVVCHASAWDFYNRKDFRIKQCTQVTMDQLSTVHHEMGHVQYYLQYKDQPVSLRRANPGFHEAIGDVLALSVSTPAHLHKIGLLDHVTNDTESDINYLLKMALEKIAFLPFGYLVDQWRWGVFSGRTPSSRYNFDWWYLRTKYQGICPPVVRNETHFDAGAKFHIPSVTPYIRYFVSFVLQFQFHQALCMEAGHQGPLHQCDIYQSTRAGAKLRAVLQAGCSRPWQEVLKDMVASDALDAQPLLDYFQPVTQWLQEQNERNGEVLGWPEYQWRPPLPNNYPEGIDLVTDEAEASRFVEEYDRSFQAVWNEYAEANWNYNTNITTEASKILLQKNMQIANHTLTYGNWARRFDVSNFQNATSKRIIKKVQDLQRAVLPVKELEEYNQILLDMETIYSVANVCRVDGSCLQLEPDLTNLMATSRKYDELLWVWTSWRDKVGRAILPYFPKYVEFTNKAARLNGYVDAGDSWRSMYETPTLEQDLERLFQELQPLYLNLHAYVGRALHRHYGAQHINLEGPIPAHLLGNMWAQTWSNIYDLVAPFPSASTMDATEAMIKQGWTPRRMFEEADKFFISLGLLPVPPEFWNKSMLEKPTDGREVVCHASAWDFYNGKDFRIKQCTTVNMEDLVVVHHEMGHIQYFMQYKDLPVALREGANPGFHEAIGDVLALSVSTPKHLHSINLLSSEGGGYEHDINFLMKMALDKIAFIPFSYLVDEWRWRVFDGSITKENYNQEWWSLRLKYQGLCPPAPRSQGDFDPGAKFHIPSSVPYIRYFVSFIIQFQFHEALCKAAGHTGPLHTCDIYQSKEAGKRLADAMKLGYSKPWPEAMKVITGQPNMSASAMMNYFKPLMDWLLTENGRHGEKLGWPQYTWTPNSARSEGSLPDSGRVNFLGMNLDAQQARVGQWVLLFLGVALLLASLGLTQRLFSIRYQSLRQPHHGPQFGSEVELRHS
Method: The experiment was conducted in accordance with a modification of the method described by Cushman et al. (Biochemical Pharmacology, Vol. 20, pp. 1637, 1971). Thus, using hippuryl-L-histidyl-L-leucine (HHL) as the substrate, the ACE inhibitory activity was determined in terms of percent inhibition on the amount of hippuric acid produced by ACE when the compound of the present invention was added. A solution of the compound of the present invention in 0.02 to 5% dimethylsulfoxide-100 mM borate-HCl buffer solution (pH 8.3, containing 300 mM sodium chloride) was added to 100 μl of ACE (protein concentration, 20 mg/ml) and 100 μl of 1.25 mM HHL. In this experiment, a borate-HCl buffer solution containing dimethylsulfoxide at a concentration equal to that of the test solution was used as a control. After warming the solution at 37° C. for 1 hour, 150 μl of 1N hydrochloric acid was added to the solution to terminate the reaction. After 0.8 ml of ethyl acetate was added, the solution was centrifuged at 11,500 rpm for 2 minutes. A 0.5 ml aliquot was separated from the ethyl acetate layer and dried at a temperature of not more than 40° C. under nitrogen gas streams. The residue was mixed thoroughly with 4.5 ml of distilled water, and the mixture was subjected to colorimetry at a wavelength of 228 nm.

[3] = 5 min. after the administration
[4] = 10 min. after the administration
[5] = 30 min. after the administration
[6] = 60 min. after the administration
[7] = 90 min. after the administration
[8] = 120 min. after the administration

SMILES: CCOC(=O)C(CCCC1CCNCC1)NC1CSc2ccccc2N(CC(=O)O)C1=O [Example 90, 3(R)-[1(S)-ethoxycarbonyl-4-(4-piperidyl)butyl]-amino-4-oxo-2,3,4,5-tetrahydro-1,5-berzothiazepine-5-acetic acid.dihydrobromide]
Inhibition against hypertensive reaction by angiotension I, % [1, 3]: 100%
Inhibition against hypertensive reaction by angiotension I, % [1, 4]: 100%
Inhibition against hypertensive reaction by angiotension I, % [1, 5]: 100%
Inhibition against hypertensive reaction by angiotension I, % [1, 6]: 90%
Inhibition against hypertensive reaction by angiotension I, % [1, 7]: 67%
Inhibition against hypertensive reaction by angiotension I, % [1, 8]: 62%

SMILES: O=C(O)CN1C(=O)[C@@H](N[C@@H](CCC2CCSCC2)C(=O)O)CSc2ccccc21 [Example 75]
inhibition at 0.1 µM [2]: 89%

SMILES: O=C(O)CN1C(=O)[C@@H](N[C@@H](CCC2CCOCC2)C(=O)O)CSc2ccccc21 [Example 74]
inhibition at 0.1 µM [2]: 94%

SMILES: O=C(O)CN1C(=O)[C@@H](N[C@@H](CCC2CCNCC2)C(=O)O)CSc2ccccc21 [Example 73, 3(R)-[1(S)-carboxy-3-(4-piperidyl)propyl]amino-4-oxo-2,3,4,5-tetrahydro-1,5-benzothiazepine-5-acetic acid]
inhibition at 0.1 µM [2]: 92%

Further lines, with some results ahead:

inhibition at 0.1 µM [2]: 98%
SMILES: O=C(O)CN1C(=O)[C@@H](N[C@@H](CCCCCC2CCNCC2)C(=O)O)CSc2ccccc21 [Example 98, 3(R)-[1(S)-carboxy-6-(4-piperidyl)hexyl]amino-4-oxo-2,3,4,5-tetrahydro-1,5-benzothiazepine-5-acetic acid]
Inhibition against hypertensive reaction by angiotension I, % [1, 3]: 100%
Inhibition against hypertensive reaction by angiotension I, % [1, 4]: 100%
Inhibition against hypertensive reaction by angiotension I, % [1, 5]: 100%
Inhibition against hypertensive reaction by angiotension I, % [1, 6]: 100%
Inhibition against hypertensive reaction by angiotension I, % [1, 7]: 95%
Inhibition against hypertensive reaction by angiotension I, % [1, 8]: 79%

inhibition at 0.1 µM [2]: 98%
SMILES: O=C(O)CN1C(=O)[C@@H](N[C@@H](CCCCC2CCNCC2)C(=O)O)CSc2ccccc21 [Example 95, 3(R)-[1(S)-carboxy-5-(4-piperidyl)pentyl]amino-4-oxo-2,3,4,5-tetrahydro-1,5-benzothiazepine-5-acetic acid]
Inhibition against hypertensive reaction by angiotension I, % [1, 3]: 96%
Inhibition against hypertensive reaction by angiotension I, % [1, 4]: 94%
Inhibition against hypertensive reaction by angiotension I, % [1, 5]: 99%
Inhibition against hypertensive reaction by angiotension I, % [1, 6]: 89%
Inhibition against hypertensive reaction by angiotension I, % [1, 7]: 96%
Inhibition against hypertensive reaction by angiotension I, % [1, 8]: 91%

inhibition at 0.1 µM [2]: 92%
SMILES: O=C(O)CN1C(=O)[C@@H](N[C@@H](CCCC2CCNCC2)C(=O)O)CSc2ccccc21 [Example 91, 3(R)-[1(S)-carboxy-4-(4-piperidyl)butyl]amino-4-oxo-2,3,4,5-tetrahydro-1,5-benzothiazepine-5-acetic acid]

inhibition at 0.1 µM [2]: 92%
SMILES: O=C(O)CN1C(=O)[C@@H](N[C@@H](CCCCN2CCCCC2)C(=O)O)CSc2ccccc21 [Example 82, 3(R)-[1(S)-carboxy-5-piperidinopentyl]amino-4-oxo-2,3,4,5-tetrahydro-1,5-benzothiazepine-5-acetic acid]

inhibition at 0.1 µM [2]: 98%
SMILES: O=C(O)CN1C(=O)[C@@H](N[C@@H](CCCCCCC2CCNCC2)C(=O)O)CSc2ccccc21 [Example 100, 3(R)-[1(S)-carboxy-7-(4-piperidyl)heptyl]amino-4-oxo-2,3,4,5-tetrahydro-1,5-benzothiazepine-5-acetic acid]
